The target in the assay is Human factor D (Homo sapiens (Human), UniProt P00746). Put plainly: Human Factor D Assay. The conditions noted are these: Human factor D 80 nM, substrate Z-L-Lys-SBzl, assay of Example 12. The class given is biochemical. A digest of the protocol:
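Serum-purified human factor D (80 nM final) was preincubated 5 min at room temperature with compound in 50 mM Tris, 1 M NaCl, pH 7.5. Z-L-Lys-SBzl and DTNB (100 μM each) were added and OD405 followed kinetically over 30 min; IC50 from non-linear regression of percent inhibition.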

Bounds are passed on as bounds.

What is called IC50 is the concentration that gives 50% inhibition. A low value points to greater potency.

Sequence of Human factor D (P00746 26-253): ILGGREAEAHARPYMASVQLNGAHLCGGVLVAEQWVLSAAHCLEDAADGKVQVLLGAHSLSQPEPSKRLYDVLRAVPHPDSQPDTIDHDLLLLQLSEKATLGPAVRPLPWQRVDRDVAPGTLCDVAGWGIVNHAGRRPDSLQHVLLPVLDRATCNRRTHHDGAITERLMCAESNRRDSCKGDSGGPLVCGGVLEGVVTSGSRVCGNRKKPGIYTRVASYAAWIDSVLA

`COc1ncc(C#Cc2ccc3c(c2)c(C(N)=O)nn3CC(=O)N2C[C@H](F)C[C@H]2C(=O)Nc2cccc(Br)n2)cn1` [Compound 92, 1-(2-((2S,4R)-2-(6-bromopyridin-2-ylcarbamoyl)-4-fluoropyrrolidin-1-yl)-2-oxoethyl)-5-((2-methoxypyrimidin-5-yl)ethynyl)-1H-indazole-3-carboxamide] came in with an IC50 of under 1 µM.
For `NC(=O)c1nn(CC(=O)N2C[C@H](F)C[C@H]2C(=O)Nc2cccc(-c3cncnc3)c2F)c2ccc(C#Cc3ncccn3)cc12` [Compound 69, 1-(2-((2S,4R)-4-fluoro-2-(2-fluoro-3-(pyrimidin-5-yl)phenylcarbamoyl)pyrrolidin-1-yl)-2-oxoethyl)-5-(pyrimidin-2-ylethynyl)-1H-indazole-3-carboxamide] the value was under 1 µM; for `NC(=O)c1nn(CC(=O)N2[C@@H]3C[C@@H]3C[C@H]2C(=O)Nc2ccn(CC(F)(F)F)n2)c2ccc(C#Cc3ncc(F)cn3)cc12` [Compound 72, 5-((5-fluoropyrimidin-2-yl)ethynyl)-1-(2-oxo-2-((1R,3S,5R)-3-(1-(2,2,2-trifluoroethyl)-1H-pyrazol-3-ylcarbamoyl)-2-azabicyclo[3.1.0]hexan-2-yl)ethyl)-1H-indazole-3-carboxamide], under 1 µM.
For `CC(=O)c1cn(CC(=O)N2C[C@H](F)C[C@H]2C(=O)NCc2cccc(Cl)c2F)c2cc(C#CC(=O)O)ccc12` [Compound 2, 3-(3-acetyl-1-(2-((2S,4R)-2-(3-chloro-2-fluorobenzylcarbamoyl)-4-fluoropyrrolidin-1-yl)-2-oxoethyl)-1H-indol-6-yl)propiolic acid] the value was under 1 µM; for `NC(=O)c1nn(CC(=O)N2C[C@H](F)C[C@H]2C(=O)Nc2cncc(-c3cc(F)c(F)cc3Cl)n2)c2ccc(C#Cc3ncc(F)cn3)cc12` [Compound 87, 1-(2-((2S,4R)-2-(6-(2-chloro-4,5-difluorophenyl)pyrazin-2-ylcarbamoyl)-4-fluoropyrrolidin-1-yl)-2-oxoethyl)-5-((5-fluoropyrimidin-2-yl)ethynyl)-1H-indazole-3-carboxamide], under 1 µM.
As for `NC(=O)c1nn(CC(=O)N2[C@@H]3C[C@@H]3C[C@H]2C(=O)Nc2cccc(Br)n2)c2ccc(C#Cc3ncc(F)cn3)cc12` [Compound 43, 1-(2-((1R,3S,5R)-3-(6-bromopyridin-2-ylcarbamoyl)-2-azabicyclo[3.1.0]hexan-2-yl)-2-oxoethyl)-5-((5-fluoropyrimidin-2-yl)ethynyl)-1H-indazole-3-carboxamide], the IC50 is under 1 µM.
As to `NC(=O)c1nn(CC(=O)N2C[C@H](F)C[C@H]2C(=O)Nc2cccc(-c3ccccc3Cl)c2F)c2ccc(C#Cc3ncc(F)cn3)cc12` [Compound 55, 1-(2-((2S,4R)-2-(2′-chloro-2-fluorobiphenyl-3-ylcarbamoyl)-4-fluoropyrrolidin-1-yl)-2-oxoethyl)-5-((5-fluoropyrimidin-2-yl)ethynyl)-1H-indazole-3-carboxamide], the IC50 was under 1 µM.
For `NC(=O)c1nn(CC(=O)N2C[C@H](F)C[C@H]2C(=O)Nc2cc(C(F)(F)F)cc(Cl)n2)c2ccc(C#Cc3ncc(F)cn3)cc12` [Compound 74, 1-(2-((2S,4R)-2-(6-chloro-4-(trifluoromethyl)pyridin-2-ylcarbamoyl)-4-fluoropyrrolidin-1-yl)-2-oxoethyl)-5-((5-fluoropyrimidin-2-yl)ethynyl)-1H-indazole-3-carboxamide] the value was under 1 µM; for `COC(=O)C#Cc1ccc2c(C(C)=O)cn(CC(=O)N3C[C@H](F)C[C@H]3C(=O)NCc3cccc(Cl)c3F)c2c1` [Compound 4, methyl 3-(3-acetyl-1-(2-((2S,4R)-2-(3-chloro-2-fluorobenzylcarbamoyl)-4-fluoropyrrolidin-1-yl)-2-oxoethyl)-1H-indol-6-yl)propiolate], under 1 µM.

For the origin of these results see US9828396B2, “Alkyne compounds for treatment of complement mediated disorders” (Achillion Pharmaceuticals, Inc., priority 2014, dated 2017).
